Columns and labels:
[1] = biological target: interaction of Smad2 with TβRI (Rattus norvegicus, UniProt O70436); assay: Immunoprecipitation of Smad2 with TβRI in UUO kidneys; format: in vivo; conditions: GQ-5 40 mg/kg daily i.p. right after UUO, sacrificed day 14
Procedure: (§1) Male Sprague-Dawley rats with body weight 200 to 250 g were randomized into 3 groups (n=6 in each group): (1) sham operated rats; (2) UUO rats; (3) UUO+GQ-5 rats.
(§2) GQ-5 was dissolved in 5% propylene glycol.
(§3) (3) UUO+GQ-5 rats: daily intraperitoneal injection of GQ-5 (40 mg/kg body weight) right after UUO;
(§4) UUO was performed using an established protocol as described. GQ-5 was dissolved in 5% propylene glycol. Rats were administrated with GQ-5 as described before. All the rats were sacrificed 14 days after UUO. Immunoprecipitation analyses were performed to examine the interaction among TβRI, TβRII, Smad3 and Smad2.

[2] = biological target: interaction of Smad3 with TβRI (Rattus norvegicus, UniProt P84025); assay: Immunoprecipitation of Smad3 with TβRI in UUO kidneys; format: in vivo; set-up: from tissue; host or cells: kidney of UUO Sprague-Dawley rats; conditions: GQ-5 40 mg/kg daily i.p. right after UUO, sacrificed day 14
Procedure: as §1, §2, §3, §4

α-SMA = assay: Western blot of TGF-β1-induced α-SMA protein in vitro; format: cell-based, rat; conditions: NRK 52E and NRK 49F cells, GQ-5 0.1-2.5 μM pre-treated 1 h, TGF-β1 10 ng/ml 48 h
Procedure: (§5) NRK52E and NRK49F cells were cultured in DMEM-Ham's medium supplemented with 10% fetal bovine serum. The cells reached at approximately 50% confluence were used for in vitro experiments. Cells were serum-starved for 12 h, and randomized into 6 groups: (1) Controls; (2) GQ-5 only; (3) TGF-β1 only; (4) TGF-β1+GQ-5 0.1 μM; (5) TGF-β1+GQ-5 0.5 μM; (6) TGF-β1+GQ-5 2.5 μM
(§6) (2) GQ-5 only: pre-treated with GQ-5 (2.5 μM) for 1 h, followed with DMEM for 48 h
(§7) (3) TGF-β1 only: pre-treated with DMSO for 1 h, followed with TGF-β1 (10 ng/ml) for 48 h
(§8) (4) TGF-β1+GQ-5 0.1 μM: pre-treated with GQ-5 (0.1 μM) for 1 h, followed with TGF-β1 (10 ng/ml) for 48 h
(§9) (5) TGF-β1+GQ-5 0.5 μM: pre-treated with GQ-5 (0.5 μM) for 1 h, followed with TGF-β1 (10 ng/ml) for 48 h
(§10) (6) TGF-β1+GQ-5 2.5 μM: pre-treated with GQ-5 (2.5 μM) for 1 h, followed with TGF-β1 (10 ng/ml) for 48 h
(§11) GQ-5 was dissolved in DMSO. Cells were treated as described. Cells lysates were immunebloted with antibodies against α-SMA, collagen I and fibronectin.

collagen I = assay: Western blot of TGF-β1-induced collagen I protein in vitro; format: cell-based, rat; conditions: NRK 52E and NRK 49F cells, GQ-5 0.1-2.5 μM pre-treated 1 h, TGF-β1 10 ng/ml 48 h
Procedure: as §5, §6, §7, §8, §9, §10, §11

Smad2 phosphorylation = Smad2 phosphorylation in kidney tissue of UUO rats (immunohistochemistry, Western blot); format: in vivo, rat; conditions: GQ-5 40 mg/kg daily i.p. right after or 7 days after UUO, sacrificed day 14
Procedure: Male Sprague-Dawley rats with body weight 200 to 250 g were randomized into 4 groups (n=6 in each group): (1) sham operated rats; (2) UUO rats; (3) UUO+GQ-5 d1 rats; (4) UUO+GQ-5 d7 rats.
as §2
(3) UUO+GQ-5 d1 rats: daily intraperitoneal injection of GQ-5 (40 mg/kg body weight) right after UUO;
(4) UUO+GQ-5 d7 rats: daily intraperitoneal injection of GQ-5 (40 mg/kg body weight) 7 days after UUO.
as §4, with “Immunohistochemical staining and Western blot” for “Immunoprecipitation”, “the” for “the interaction among TβRI, TβRII,”, “Smad2 phosphorylation in kidney tissue.” for “Smad2.”

PI3K = assay: Western blot of TGF-β1-induced PI3K phosphorylation in vitro; format: cell-based, rat; conditions: NRK52E and NRK49F cells, GQ-5 2.5 nM pre-treated 1 h, TGF-β1 10 ng/ml 1 h
Procedure: NRK52E and NRK49F cells were cultured in DMEM-Ham's medium (Gibco, Life Techologies, NY, USA) supplemented with 10% fetal bovine serum (Gibco, Life Techologies, NY, USA). The cells reached at approximately 50% confluence were used for in vitro experiments. Cells were serum-starved for 12 h, and randomized into 4 groups: (1) Controls; (2) GQ-5 only; (3) TGF-β1 only; (4) TGF-β1+GQ-5
(2) GQ-5 only: pre-treated with GQ-5 (2.5 μM) for 1 h, followed with DMEM for 1 h
(3) TGF-β1 only: pre-treated with DMSO (0.1%) for 1 h, followed with TGF-β1 (10 ng/ml) for 1 h
(4) TGF-β1+GQ-5: pre-treated with GQ-5 (2.5 nM) for 1 h, followed with TGF-β1 (10 ng/ml) for 1 h
GQ-5 was dissolved in DMSO. Cells were treated as described. cell lysates were immunoblotted with antibodies against Smad4, Smad7, phospho-p38, p38, phospho-PI3K, PI3K, phosphor-ERK, and ERK.

Chain of interaction of Smad3 with TβRI (P84025 whole entry): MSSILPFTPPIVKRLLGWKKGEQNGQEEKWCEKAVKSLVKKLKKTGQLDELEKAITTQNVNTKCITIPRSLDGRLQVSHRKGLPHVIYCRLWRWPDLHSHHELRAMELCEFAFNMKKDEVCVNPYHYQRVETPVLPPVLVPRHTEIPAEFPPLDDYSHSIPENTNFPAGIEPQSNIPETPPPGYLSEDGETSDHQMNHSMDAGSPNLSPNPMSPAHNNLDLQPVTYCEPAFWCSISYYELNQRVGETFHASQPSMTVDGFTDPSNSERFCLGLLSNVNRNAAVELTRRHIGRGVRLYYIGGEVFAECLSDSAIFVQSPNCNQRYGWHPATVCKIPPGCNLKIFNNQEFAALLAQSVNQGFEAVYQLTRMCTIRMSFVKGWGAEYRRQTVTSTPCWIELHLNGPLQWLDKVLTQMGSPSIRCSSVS
Chain of interaction of Smad2 with TβRI (O70436 whole entry): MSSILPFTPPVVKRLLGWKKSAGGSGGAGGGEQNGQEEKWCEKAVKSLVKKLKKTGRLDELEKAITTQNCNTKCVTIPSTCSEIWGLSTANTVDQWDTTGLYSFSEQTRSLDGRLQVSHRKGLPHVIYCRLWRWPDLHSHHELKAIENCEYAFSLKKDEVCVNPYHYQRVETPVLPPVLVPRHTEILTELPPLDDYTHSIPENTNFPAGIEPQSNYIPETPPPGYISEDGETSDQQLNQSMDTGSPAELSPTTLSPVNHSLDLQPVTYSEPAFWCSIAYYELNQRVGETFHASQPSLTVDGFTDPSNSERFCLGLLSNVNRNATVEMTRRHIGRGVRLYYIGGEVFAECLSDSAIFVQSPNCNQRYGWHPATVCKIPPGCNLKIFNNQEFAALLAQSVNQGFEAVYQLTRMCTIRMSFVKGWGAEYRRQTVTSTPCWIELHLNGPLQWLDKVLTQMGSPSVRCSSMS

## CCCCCC/C=C\CCCCCCCc1cccc(O)c1O [GQ-5, 3-[(Z)-pentadec-8-enyl]catechol]
[1]
  interaction of Smad2 with TβRI: did not affect
[2]
  interaction of Smad3 with TβRI: significantly blocked
α-SMA
  TGF-β1-induced protein expression of α-SMA: significantly inhibited
Collagen I
  TGF-β1-induced protein expression of collagen I: significantly inhibited
Smad2 phosphorylation
  Smad2 phosphorylation in renal tissue: not Smad2
PI3K
  TGF-β1-induced phosphorylation of PI3K: did not affect
